Measured values as given in ChEMBL document CHEMBL5325392, “Development of 3α,7α-dihydroxy-6α-ethyl-24-nor-5β-cholan-23-sulfate sodium salt (INT-767): Process optimization, synthesis and characterization of metabolites” (Eur J Med Chem, 2022).
pEC50: −log10 of the molar value.

Assays:
Bile acid receptor = target: T1, Bile acid receptor (Homo sapiens, UniProt Q96RI1); test: Agonist activity at glutathione transferase-tagged human FXR ligand binding domain assessed as biotinylated Src1 peptide recruitment incubated for 30 mins by AlphaScreen assay
T1 sequence (Q96RI1 whole entry): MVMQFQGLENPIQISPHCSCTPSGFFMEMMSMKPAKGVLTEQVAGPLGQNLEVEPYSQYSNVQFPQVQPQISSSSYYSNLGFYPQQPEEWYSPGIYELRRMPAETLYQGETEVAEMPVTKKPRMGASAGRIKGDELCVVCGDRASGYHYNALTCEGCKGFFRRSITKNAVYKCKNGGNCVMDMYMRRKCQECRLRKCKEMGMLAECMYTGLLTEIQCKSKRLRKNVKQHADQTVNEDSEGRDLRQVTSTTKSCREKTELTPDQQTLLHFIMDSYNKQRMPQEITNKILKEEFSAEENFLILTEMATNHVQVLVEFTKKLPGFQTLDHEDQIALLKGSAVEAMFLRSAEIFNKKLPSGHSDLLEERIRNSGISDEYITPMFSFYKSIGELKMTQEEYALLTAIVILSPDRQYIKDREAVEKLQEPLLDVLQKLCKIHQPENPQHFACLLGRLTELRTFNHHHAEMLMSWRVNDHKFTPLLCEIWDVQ

[1] = target: T2, G-protein coupled bile acid receptor 1 (Homo sapiens, UniProt Q8TDU6); test: Agonist activity at TGR5 receptor in human NCI-H716 cells assessed as activation of intracellular cAMP production incubated for 1 hr by HTR-FRET assay; format: functional, cell-based
T2 sequence (Q8TDU6 whole entry): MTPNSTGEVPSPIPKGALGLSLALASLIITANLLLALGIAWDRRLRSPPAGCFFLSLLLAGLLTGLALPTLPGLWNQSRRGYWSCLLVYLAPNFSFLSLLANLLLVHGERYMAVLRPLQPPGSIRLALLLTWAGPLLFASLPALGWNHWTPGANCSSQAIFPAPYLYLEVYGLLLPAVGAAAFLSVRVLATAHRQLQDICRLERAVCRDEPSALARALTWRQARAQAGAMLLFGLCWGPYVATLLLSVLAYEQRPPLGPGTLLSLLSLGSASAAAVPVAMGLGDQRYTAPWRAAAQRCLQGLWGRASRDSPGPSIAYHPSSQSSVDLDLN

[2] = target: T3, Bile acid receptor (Homo sapiens) (UniProt Q96RI1); test: Agonist activity at glutathione transferase-tagged human FXR ligand binding domain assessed as biotinylated Src1 peptide recruitment incubated for 30 mins by AlphaScreen assay relative to CDCA; conditions: filed as agonist
T3 sequence (whole entry): T1 sequence (Q96RI1 whole entry)

Compound | pEC50 (Bile acid receptor) | pEC50 [1] | Efficacy [2]
CC[C@H]1[C@@H](O)[C@@H]2[C@H](CC[C@]3(C)[C@@H]([C@H](C)CCOS(=O)(=O)O)CC[C@@H]23)[C@@]2(C)CC[C@@H](OS(=O)(=O)O)C[C@@H]12 | < 4.00 | < 4.00 | –
CC[C@H]1[C@@H](O)[C@@H]2[C@H](CC[C@]3(C)[C@@H]([C@H](C)CCOS(=O)(=O)O)CC[C@@H]23)[C@@]2(C)CCC(=O)C[C@@H]12 | 7.10 | 5.30 | 162%
CC[C@H]1[C@@H](O)[C@@H]2[C@H](CC[C@]3(C)[C@@H]([C@H](C)CCOS(=O)(=O)O)CC[C@@H]23)[C@@]2(C)CC[C@@H](O[C@@H]3O[C@H](CC(=O)O)[C@@H](O)[C@H](O)[C@H]3O)C[C@@H]12 | 5.30 | < 4.00 | 115%
CC[C@H]1[C@@H](O)[C@@H]2[C@H](CC[C@]3(C)[C@@H]([C@H](C)CCO)CC[C@@H]23)[C@@]2(C)CC[C@@H](O)C[C@@H]12 | 5.92 | 5.96 | 165%
